Where “and” joins values, the source holds several entries; their conditions need not be identical. Equal entries are not always repeated. Structures can show the parent of a compound that is named as a salt.
Tests used:
[1] = target: hERG potassium channel (Homo sapiens, UniProt Q12809); assay: In vitro hERG experiment (whole-cell patch clamp); type: cell-based; details: for IC50: whole-cell patch clamp, tail current, room temperature; for hERG inhibition: functional activity lower than that of the pharmacodynamic target: hERG IC50 versus activity at pharmacodynamic target
hERG potassium channel, sequence (Q12809 whole entry): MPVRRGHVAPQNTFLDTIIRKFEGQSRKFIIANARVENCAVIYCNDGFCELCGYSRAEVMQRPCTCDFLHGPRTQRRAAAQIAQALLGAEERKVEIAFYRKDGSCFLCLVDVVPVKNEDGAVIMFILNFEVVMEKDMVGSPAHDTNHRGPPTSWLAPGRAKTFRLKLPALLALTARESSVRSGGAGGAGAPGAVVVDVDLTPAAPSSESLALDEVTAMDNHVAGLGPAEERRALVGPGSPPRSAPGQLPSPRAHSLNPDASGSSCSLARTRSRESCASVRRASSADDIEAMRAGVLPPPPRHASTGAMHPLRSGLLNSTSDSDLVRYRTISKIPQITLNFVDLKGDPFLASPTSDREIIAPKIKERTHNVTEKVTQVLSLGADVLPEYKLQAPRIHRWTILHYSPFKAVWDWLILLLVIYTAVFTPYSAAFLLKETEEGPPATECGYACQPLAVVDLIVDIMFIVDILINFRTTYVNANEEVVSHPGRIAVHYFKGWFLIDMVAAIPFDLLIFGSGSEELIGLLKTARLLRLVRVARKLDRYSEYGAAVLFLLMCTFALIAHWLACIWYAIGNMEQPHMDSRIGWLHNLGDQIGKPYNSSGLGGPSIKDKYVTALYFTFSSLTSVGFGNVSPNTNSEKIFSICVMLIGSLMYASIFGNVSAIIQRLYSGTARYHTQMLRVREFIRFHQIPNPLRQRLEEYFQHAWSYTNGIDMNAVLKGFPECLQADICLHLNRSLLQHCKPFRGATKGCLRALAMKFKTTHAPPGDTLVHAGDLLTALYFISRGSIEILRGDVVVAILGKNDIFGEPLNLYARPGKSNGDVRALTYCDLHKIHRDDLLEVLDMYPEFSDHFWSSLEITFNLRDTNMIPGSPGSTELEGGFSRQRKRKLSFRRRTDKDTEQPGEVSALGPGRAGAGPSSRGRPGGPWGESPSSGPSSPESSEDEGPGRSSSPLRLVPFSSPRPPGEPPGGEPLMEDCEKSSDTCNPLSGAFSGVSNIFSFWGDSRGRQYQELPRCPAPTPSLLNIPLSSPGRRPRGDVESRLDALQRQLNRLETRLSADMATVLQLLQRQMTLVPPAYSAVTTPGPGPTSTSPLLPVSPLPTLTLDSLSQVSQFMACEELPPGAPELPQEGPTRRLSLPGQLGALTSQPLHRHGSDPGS
Protocol: Extracellular fluid: 140 mM NaCl, 3.5 mM KCl, 1 mM MgCl2, 2 mM CaCl2, 10 mM Glucose, 10 mM HEPES, and 1.25 mM NaH2PO4, with the pH adjusted to 7.4 by NaOH.
Under an inverted microscope, recording electrodes were controlled by a glass electrode micromanipulator (micromanipulation) to contact with the cell. A negative voltage was applied to form a GΩ seal. After forming the GΩ seal, a rapid capacitance compensation was given. Under the continuous negative voltage, the cell membrane was ruptured to establish a whole-cell recording mode. In the whole-cell recording mode, a slow capacitance compensation was given, and the values of membrane capacitance and series resistance were recorded.
Voltage stimulation scheme for cellular hERG potassium current: the cell membrane clamping voltage was -80 mV; the voltage was first elevated from -80 mV to +30 mV, held for 2.5 s, and rapidly changed to and held at -50 mV for 4 s, thus exciting the hERG channel tail current. Data were acquired every 10 s. Leak current detection was performed at -50 mV.
The coverslip with seeded cells was placed in the recording chamber of the inverted microscope. Negative control and test compounds flowed through the recording chamber in an ascending order of concentration by gravity perfusion to quickly act on the cells. During the recording, the extracellular fluid was continuously circulated by a vacuum pump. The current detected in a cell in the negative control was used as the background for the cell. Each compound concentration was allowed to act for 5 min or until the current was stabilized. All experiments were performed at room temperature.
The current of each compound concentration was first normalized according to (peak tail current compound)/(peak tail current vehicle), and then the corresponding inhibition rate was calculated according to (1 - (peak tail current compound)/(peak tail current vehicle)). Basic statistics were calculated for each concentration, including mean, standard deviation (SD), standard error (SE), and replicates (n). […] Curve fitting and calculation of IC50 were performed by GraphPad Prism 5.0 software.

[2] = target: T1, 5-HT1A (Homo sapiens, UniProt P08908); assay: In vitro 5HT1A receptor function experiment (cAMP, forskolin-stimulated HEK293/5HT1A cells); type: cell-based; design: expressed in transfected cells; host or cells: HEK293; details: for EC50: forskolin 1 µM; for Emax: maximum activation rate
T1 sequence (P08908 1-422): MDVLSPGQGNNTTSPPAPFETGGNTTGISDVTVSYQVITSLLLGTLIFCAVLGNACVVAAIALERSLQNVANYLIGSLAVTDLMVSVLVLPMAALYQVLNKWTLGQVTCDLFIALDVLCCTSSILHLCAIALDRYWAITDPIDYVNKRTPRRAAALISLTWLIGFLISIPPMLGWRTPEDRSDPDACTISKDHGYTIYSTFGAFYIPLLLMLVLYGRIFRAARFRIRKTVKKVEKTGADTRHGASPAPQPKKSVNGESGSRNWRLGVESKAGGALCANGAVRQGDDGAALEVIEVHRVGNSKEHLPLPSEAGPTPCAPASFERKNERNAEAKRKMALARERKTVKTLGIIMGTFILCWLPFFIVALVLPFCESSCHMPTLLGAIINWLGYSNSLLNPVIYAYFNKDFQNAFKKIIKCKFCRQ
Protocol: 1.1.1 Cell information: HEK293/5HT1A: a stably transfected cell strain HEK293/5HT1A constructed by adopting 5HT1A receptor lentivirus to infect HEK293; growth culture medium: DMEM, 10% FBS, and 0.6 µg/mL puro; and cryopreservation culture medium: 70% culture medium, 20% FBS, and 10% DMSO.

[3] = target: Dopamine D2L receptor (Homo sapiens, UniProt P14416); assay: In vitro dopamine D2L receptor function experiment (cAMP, forskolin-stimulated HEK293/D2L cells); details: for Emax: HEK293, read-out: D2L Emax
Dopamine D2L receptor, sequence (P14416 whole entry): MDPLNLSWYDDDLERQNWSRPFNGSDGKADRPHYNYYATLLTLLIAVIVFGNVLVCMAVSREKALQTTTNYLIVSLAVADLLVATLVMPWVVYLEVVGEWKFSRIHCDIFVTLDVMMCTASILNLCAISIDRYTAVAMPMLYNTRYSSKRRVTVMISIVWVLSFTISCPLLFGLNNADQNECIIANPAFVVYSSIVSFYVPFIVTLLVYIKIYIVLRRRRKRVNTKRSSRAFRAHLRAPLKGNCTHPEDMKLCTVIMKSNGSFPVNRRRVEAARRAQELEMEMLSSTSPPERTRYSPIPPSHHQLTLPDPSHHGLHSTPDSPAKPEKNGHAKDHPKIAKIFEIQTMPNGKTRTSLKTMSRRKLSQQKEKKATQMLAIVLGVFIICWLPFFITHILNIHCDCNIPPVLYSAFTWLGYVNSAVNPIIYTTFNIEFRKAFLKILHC
Protocol: • (1) Compound preparation: The test compounds and dopamine were diluted to a concentration of 200 nM for later use. • (2) Experimental buffer preparation: The 5× stimulation buffer was diluted to 1× with ddH2O, and IBMX was added to a final concentration of 0.5 mM. The mixture was mixed well for later use. • (3) The cells were digested with trypsin, and centrifugation was performed after the digestion was terminated. The cell pellet was resuspended in 10 mL of pre-warmed HBSS and centrifuged again. Then, 1 mL of stimulation buffer was added for resuspension, and 20 µL of the cell suspension was taken for cell counting. • (4) An appropriate amount of the cell suspension was taken and diluted to 0.4 × 10^6 cells/mL, and 5 µL of the diluted cell suspension was added to each well of a cell plate and centrifuged at 1000 rpm for 1 min. • (5) Compound dilution and transfer using bravo: The compounds were diluted 4-fold to obtain 8 concentration points in the compound plate. The diluted compounds in the whole plate were then transferred to a 384-well white plate using bravo and centrifuged at 1000 rpm for 1 min. • (6) The experimental plate was sealed and incubated at room temperature for 15 min. • (7) Forskolin, prepared with DMSO, was added at 25.1 nL/well using Tecan D300e, with a mother liquor concentration of 0.2 mM and a final concentration of 0.25 µM, followed by centrifugation at 1000 rpm for 1 min. • (8) The plate was sealed and incubated at room temperature for 45 min. • (9) cAMP standard curve preparation: A 4-fold serial dilution was performed to obtain 8 concentration points from a starting concentration of 2848 nM. Then, 10 µL of each dilution was taken and added to the experimental plate, with a maximum concentration of 712 nM. • (10) 5 µL of cAMP-d2 solution (stock solution diluted at 1:20 with lysis buffer) was added to the experimental plate, and the plate was centrifuged at 1000 rpm for 1 min. • (11) Then, 5 µL of Anti-cAMP-Cryptate solution (stock solution diluted at 1:20 with lysis buffer) was added to the experimental plate, and the plate was centrifuged at 1000 rpm for 1 min. • (12) The experimental plate was incubated at room temperature for 45 min and centrifuged at 1000 rpm for 1 min before reading. • (13) Plate reading was performed using Envision, with excitation light at 320 nm and emission lights at 620 nm and 665 nm. The derived data were analyzed, and the maximum activation rates Emax and EC50 of the compounds were calculated.

[4] = target: T2, Dopamine D3 receptor (Homo sapiens, UniProt P35462); assay: In vitro dopamine D3 receptor function experiment (CHO-K1/D3/CRE reporter, chemiluminescence); type: cell-based; details: for EC50: forskolin 0.4 µM; for Emax: maximum activation rate
T2 construct: expressed in transfected cells; host or cells: CHO-K1
T2 sequence (P35462 whole entry, species assumed): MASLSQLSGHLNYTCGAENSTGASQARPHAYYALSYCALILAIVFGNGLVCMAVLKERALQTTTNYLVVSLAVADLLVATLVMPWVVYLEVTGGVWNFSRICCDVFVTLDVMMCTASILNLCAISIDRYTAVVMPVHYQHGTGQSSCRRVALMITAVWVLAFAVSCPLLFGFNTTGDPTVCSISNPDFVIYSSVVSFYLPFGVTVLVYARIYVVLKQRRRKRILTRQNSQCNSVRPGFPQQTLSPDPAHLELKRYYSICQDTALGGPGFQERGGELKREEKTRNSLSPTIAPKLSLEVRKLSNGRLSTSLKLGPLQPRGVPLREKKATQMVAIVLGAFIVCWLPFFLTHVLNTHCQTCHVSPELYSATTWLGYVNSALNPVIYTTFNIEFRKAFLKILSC
Protocol: 3.1.1 Cell information: CHO-K1/D3/CRE constructed by referring to the method in Example 5 of CN114369578A.
The first day: cell plating • (1) The cultured cells were digested with trypsin, and after the digestion was terminated with culture medium, the cell suspension was transferred to a centrifuge tube and centrifuged at 750 rpm for 5 min. • (2) The supernatant was discarded, and the pellet was resuspended in an appropriate amount of plating medium.
The following day: experimental detection • (1) The test compounds were diluted to 0.2 mM with DMSO, and the reference compound dopamine was diluted to 0.02 mM. • (2) Compound dilution (4-fold dilution at 8 concentration points) was performed using Bravo, with the starting concentrations of the test compounds and the reference compound being 5 µM and 500 nM, respectively. […] The program selected was an ultrasensitive chemiluminescence detection program.

[5] = In vitro liver microsome stability, human; details: for CLint(liver): Human liver microsomes; for CLint scaled at 1 µM / half-life at 1 µM / microsomal CLint at 1 µM: human, liver microsomes, pH 7.4
Protocol: (§1) • (1) Buffer preparation: 73.21 g of dipotassium hydrogen phosphate trihydrate and 10.78 g of potassium dihydrogen phosphate were dissolved in 4000 mL of ultrapure water. The pH of the solution was adjusted to within 7.40 ± 0.10 using 10% phosphoric acid or 1 M potassium hydroxide, resulting in a final concentration of 100 mM. • (2) Solution preparation and dilution: Stock solutions of the test compounds at a concentration of 10 mM were prepared in dimethyl sulfoxide (DMSO) and stored at 4 °C, and they were diluted into 100 µM working solutions with pure acetonitrile when used. A stock solution of the control compound testosterone at a concentration of 10 mM was prepared in DMSO and stored at -20 °C, and it was diluted into a 400 µM working solution with pure acetonitrile when used. • (3) Termination solution preparation: The termination solution was acetonitrile containing the internal standard buspirone. The prepared termination solution was stored in a refrigerator at 2-8 °C. • (4) Liver microsome solution preparation: Microsomes from various species (CD-1 mouse, SD rat, and human) were diluted into a 20× working solution using 100 mM potassium phosphate buffer. The final concentration of the microsomes in the reaction system was 0.5 mg/mL. • (5) Reduced nicotinamide adenine dinucleotide phosphate (NADPH) regeneration system preparation: Appropriate amounts of nicotinamide adenine dinucleotide phosphate (NADP), glucose-6-phosphate (G6P), magnesium chloride (MgCl2), and glucose-6-phosphate dehydrogenase (G6PDH) were weighed to prepare stock solutions at concentrations of 65.33 mM, 330 mM, 300 mM, and 250 Units/mL, respectively. The four stock solutions described above were each added to an appropriate amount of buffer, and the mixture was mixed well by gently inverting up and down. […] Several incubation plates were prepared and named T0, T5, T10, T20, T40, T60, PB60, and NCF60, respectively. […] The NCF60 plate was incubated for 60 min with potassium phosphate buffer replacing the NADPH regeneration system solution. The PB60 plate was incubated for 60 min with potassium phosphate buffer replacing the liver microsomes. Samples under all conditions were prepared in triplicate.
(§2) 2 µL of the test compound or control compound and 100 µL of microsome working solution (containing 1 mg/mL liver microsome protein) were added to each of the T0, T5, T10, T20, T40, T60, and NCF60 plates, and 2 µL of the test compound and 100 µL of potassium phosphate buffer were added to the PB60 plate. The plates described above were then pre-incubated in a 37 °C water bath for about 5 min.
(§3) After the pre-incubation, 600 µL of the termination solution was first added to the T0 samples, followed by the addition of 98 µL of NADPH regeneration system working solution. The plate was sealed, shaken, and then allowed to wait for simultaneous processing with subsequent samples. Except for the NCF60 plate where 98 µL of potassium phosphate buffer was added to each sample well, 98 µL of NADPH regeneration system working solution was added to each sample well of the other incubation plates to initiate the reaction. In the reaction system, the final concentrations of the test compound and the control compound were 1 µM and 4 µM, respectively, the concentration of the liver microsomes was 0.5 mg/mL, and the final concentrations of DMSO and acetonitrile were 0.01% (v/v) and 0.99% (v/v), respectively.
(§4) After incubation for an appropriate time (such as 5, 10, 20, 40, and 60 min), 600 µL of the termination solution containing the internal standard was added to each test compound sample and control compound well to terminate the reaction. The plates were sealed, shaken well, and then centrifuged at 4000 ×g and 4 °C for 15 min.

[6] = In vitro liver microsome stability, SD rat; details: for CLint(liver): SD rat liver microsomes; for CLint scaled at 1 µM / half-life at 1 µM / microsomal CLint at 1 µM: SD, rat, liver microsomes, pH 7.4
Protocol: as §1, §2, §3, §4

[7] = In vitro liver microsome stability, CD-1 mouse; details: for CLint scaled at 1 µM / half-life at 1 µM / microsomal CLint at 1 µM: CD-1, mouse, liver microsomes, pH 7.4; for CLint(liver): CD-1 mouse liver microsomes
Protocol: as §1, §2, §3, §4

[8] = tested on: tacrine-induced jaw tremors in rats; assay: Tacrine-induced jaw tremor behavior in rats; type: in vivo, Sprague Dawley rats; details: for Inhibition of tacrine-induced jaw tremors in rats: compared to the model group; for Minimum effective dose: tacrine-induced jaw tremor in rats, compared with rotigotine
Protocol: Test compounds: The free bases of Examples 28, 32, and 33 in the present invention, which were self-prepared.
Positive control compound: Rotigotine.
Molding drug: Tacrine, SIGMA, A3773-1G.
Vehicle: Normal saline, Cisen Pharmaceutical Co., Ltd., 2111060723.
Sprague Dawley rats, male, 10/group, Shanghai Slac Laboratory Animal Co., Ltd.
Drug preparation: The test compound was taken, added to the vehicle, and subjected to ultrasonication.
Administration route and method: Administration was performed by intraperitoneal injection.
Administration frequency and duration: single administration.
The rats were stratified according to body weight and then randomly divided into a model group, an administration group, and a control group. The rats were acclimatized for three days before the experiment. On the day of the experiment, the vehicle or drug was first injected intraperitoneally, followed by an intraperitoneal injection of tacrine at a dose of 5 mg/kg (body weight) after 60 min. After administration, the rats were placed in a transparent observation box, and the jaw tremor counting was started 10 min later. The continuous counting duration was 5 min, and the jaw tremor frequency in the rats within 5 min was recorded.
The experimental data were expressed as x ± SEM. Inhibition rate (%) = 100% × (jaw tremor frequency in the rats of the model group - jaw tremor frequency in the rats of the administration group)/jaw tremor frequency in the rats of the model group, where *: p < 0.05, **: p < 0.01, and ***: p < 0.001 vs vehicle.

[9] = target: T1, 5-HT1A; details: literature value; cited from earlier work
[10] = 1 mg/kg, 3 mg/kg, and 10 mg/kg, intraperitoneal, single administration, free base

SMILES	IC50 [1]	EC50 [2]	Emax [2]	EC50 [3]	Emax [3]	EC50 [4]	Emax [4]	CLint(liver) [5]	CLint scaled at 1 µM [5]	microsomal CLint at 1 µM [5]	CLint(liver) [6]	CLint scaled at 1 µM [6]	half-life at 1 µM [6]	microsomal CLint at 1 µM [6]	CLint scaled at 1 µM [7]	microsomal CLint at 1 µM [7]	CLint(liver) [7]	Inhibition of tacrine-induced jaw tremors in rats [8, 10]	Minimum effective dose [8]	also measured
CCCN(CC1CCN(C(=O)OC)CC1)[C@@H]1CCc2nc(N)sc2C1 (stereo in doubt) [Comparative Example 3, Methyl (R)-4-(((2-amino-4,5,6,7-tetrahydrobenzo[d]thiazol-6-yl)(propyl)amino)methyl)piperidine-1-carboxylate hydrochloride, reference compound]	5100 nM	203 nM	97%	0.95 nM	112%															
CCCN(CCN1CCN(c2cccc(Cl)c2Cl)CC1)[C@H]1CCc2nc(N)sc2C1 [Comparative Example 1, (S)-N^6-(2-(4-(2,3-Dichlorophenyl)piperazin-1-yl)ethyl)-N^6-propyl-4,5,6,7-tetrahydrobenzo[d]thiazole-2,6-diamine hydrochloride, reference compound]		203 nM	99.1%	0.25 nM	101%															
CCCN(CC1CCN(C(=O)OC)CC1)C1CCc2nc(N)sc2C1 (stereo not shown) [Comparative Example 2, Methyl 4-(((2-amino-4,5,6,7-tetrahydrobenzo[d]thiazol-6-yl)(propyl)amino)methyl)piperidine-1-carboxylate hydrochloride, reference compound]	4700 nM	247 nM	95.4%	1.68 nM	112%															
CCCN(CC1CCN(C(=O)c2ccccc2)CC1)[C@H]1CCc2nc(N)sc2C1 [Example 17, (S)-(4-(((2-Amino-4,5,6,7-tetrahydrobenzo[d]thiazol-6-yl)(propyl)amino)methyl)piperidin-1-yl)(phenyl)methanone]		51.6 nM	114%			1.1 nM	109%	27.7 mL/min/K g	8.9 to 48.3 mL/min/kg	30.8 µL/min/mg	76.9 mL/min/K g	23.7 to 129 mL/min/kg	0.54 h	42.7 µL/min/mg	38.6 to 210 mL/min/kg	17.4 µL/min/mg	68.8 mL/min/K g			half-life at 1 µM [5]: 0.75 h; half-life at 1 µM [7]: 1.33 h
CCCN(CC1CCN(C(=O)c2cnn(C)c2)CC1)[C@H]1CCc2nc(N)sc2C1 [Example 28, (S)-(4-(((2-Amino-4,5,6,7-tetrahydrobenzo[d]thiazol-6-yl)(propyl)amino)methyl)piperidin-1-yl)(1-methyl-1H-pyrazol-4-yl)methanone]	20000 nM and 23300 nM	122 nM	103%					1.0 mL/min/K g	< 8.9 mL/min/kg	1.1 µL/min/mg	2.7 mL/min/K g	< 23.7 mL/min/kg	14.8 h	2.8 µL/min/mg	< 38.6 mL/min/kg	13.9 µL/min/mg	13.4 mL/min/K g	significantly inhibited	lower than that of the positive control drug	half-life at 1 µM [5]: 19.7 h; half-life at 1 µM [7]: 6.57 h
CCCN(CC1CCN(C(=O)N(C)C)CC1)[C@H]1CCc2nc(N)sc2C1 [Example 32, (S)-4-(((2-Amino-4,5,6,7-tetrahydrobenzo[d]thiazol-6-yl)(propyl)amino)methyl)-N,N-dimethylpiperidine-1-carboxamide]	20000 nM and 17800 nM	25.7 nM	102%			1.3 nM	120%	10.3 mL/min/K g	8.9 to 48.3 mL/min/kg	11.5 µL/min/mg	38.5 mL/min/K g	23.7 to 129 mL/min/kg	1.08 h	21.4 µL/min/mg	38.6 to 210 mL/min/kg	11.5 µL/min/mg	45.5 mL/min/K g	significantly inhibited	lower than that of the positive control drug	hERG inhibition: functional activity lower than that of the pharmacodynamic target [1]: ≥ 1000 fold
CCCN(CC1CCN(C(=O)N2CCOCC2)CC1)[C@H]1CCc2nc(N)sc2C1 [Example 33, (S)-(4-(((2-Amino-4,5,6,7-tetrahydrobenzo[d]thiazol-6-yl)(propyl)amino)methyl)piperidin-1-yl)(morpholino)methanone]	20000 nM and 20200 nM	162 nM	92.7%			1.1 nM	107%	2.6 mL/min/K g	< 8.9 mL/min/kg	2.9 µL/min/mg	27.3 mL/min/K g	23.7 to 129 mL/min/kg	1.52 h	15.2 µL/min/mg	38.6 to 210 mL/min/kg	12.6 µL/min/mg	50.0 mL/min/K g	significantly inhibited	lower than that of the positive control drug	hERG inhibition: functional activity lower than that of the pharmacodynamic target [1]: ≥ 1000 fold
Cc1ccc(CNCC2(F)CCN(C(=O)c3ccc(F)c(Cl)c3)CC2)nc1 [NLX-112]																				5-HT1A Emax [9]: 84%
CCCN(CCc1cccs1)[C@H]1CCc2c(O)cccc2C1 [rotigotine, Rotigotine, reference compound]																				Inhibition of tacrine-induced jaw tremors in rats ([8]; 10 mg/kg, positive control): significantly inhibited

From EP4570798A1, “AROMATIC HETEROCYCLIC CYCLOHEXYL AMINOALKYL PIPERIDINE DERIVATIVE, PREPARATION METHOD AND USE THEREOF” (Jiangsu NHWA Pharmaceutical Co., Ltd, priority 2022, dated 2024)
